Literature values, collected in patent US20180110939A1, “METHOD, SYSTEM AND APPARATUS FOR CONTROLLED DELIVERY OF OPIOID AND OTHER MEDICATIONS” (Somniferum Labs LLC, priority 2016, published 2018).

Experiments:
[1] = in vivo
[2] = for share of the total area under the concentration-time curve of morphine and its principle metabolites: following intravenous (IV) morphine administration in humans
[3] = in vivo; remark: listed apart in the source
[4] = converted via the liver

Compound | plasma concentrations higher than morphine [1] | plasma protein binding | time from which M-6-G was present in higher concentrations than morphine ([2]; following IV administration, h.p.l.c. method) | share of the total area under the concentration-time curve of morphine and its principle metabolites [2] | LD50 (lethal dose) [3] | amount generated relative to M-6-G from a given amount of morphine [4]
CN1CC[C@]23c4c5ccc(O)c4O[C@H]2[C@@H](O[C@@H]2O[C@H](C(=O)O)[C@@H](O)[C@H](O)[C@H]2O)C=C[C@H]3[C@H]1C5 [M-6-G, morphine-6-glucuronide] | approximately 4 fold | low | ≥ 1 h | 15% | no LD50 | 
CN1CC[C@]23c4c5ccc(O[C@@H]6O[C@H](C(=O)O)[C@@H](O)[C@H](O)[C@H]6O)c4O[C@H]2[C@@H](O)C=C[C@H]3[C@H]1C5 [M-3-G, morphine-3-glucuronide, reference compound] |  |  |  | approximately 75% |  | 5 times
